The results in this text go back to article PMC9611727, “Optimization of a Novel Mandelamide-Derived Pyrrolopyrimidine Series of PERK Inhibitors” (Pharmaceutics, 2022).

Series [1] has as its target T1, HIPK4 (Homo sapiens, UniProt Q8NE63).
T1 construct: purchased DiscoverX scanMAX
T1 sequence (Q8NE63 1-616): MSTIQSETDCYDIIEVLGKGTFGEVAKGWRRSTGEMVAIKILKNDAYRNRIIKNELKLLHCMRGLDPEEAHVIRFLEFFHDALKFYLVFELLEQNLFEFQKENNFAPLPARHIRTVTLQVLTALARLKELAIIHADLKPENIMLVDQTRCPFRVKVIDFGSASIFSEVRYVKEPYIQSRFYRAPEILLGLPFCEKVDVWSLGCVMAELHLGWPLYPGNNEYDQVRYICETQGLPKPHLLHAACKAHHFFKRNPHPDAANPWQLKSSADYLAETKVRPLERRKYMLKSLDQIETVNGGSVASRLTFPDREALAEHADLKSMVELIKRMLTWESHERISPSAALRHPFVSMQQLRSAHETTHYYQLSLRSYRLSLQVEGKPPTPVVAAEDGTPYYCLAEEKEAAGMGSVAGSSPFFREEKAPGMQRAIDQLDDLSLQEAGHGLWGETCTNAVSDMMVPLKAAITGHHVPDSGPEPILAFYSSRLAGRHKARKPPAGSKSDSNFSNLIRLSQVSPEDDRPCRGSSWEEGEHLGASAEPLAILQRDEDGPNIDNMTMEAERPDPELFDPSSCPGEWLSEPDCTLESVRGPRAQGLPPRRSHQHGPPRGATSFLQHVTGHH
As to the kind of experiment: scanMAX kinase panel. Format: binding. The note with it: read-out: % Control; for remaining binding at 1 µM: 1000 nM. From the text: (§1) Supplemental Table S2. scanMAXSM Kinome Assay Results. Complete tabulated data of all 468 kinases from the panel, including
(§2) 403 wild-type and 65 mutant isoforms. […] Cmpd 11 and Cmpd 24

Series [2] addresses T2, PIK3CA(E542K) (Homo sapiens, UniProt P42336, E542K).
T2 construct: purchased DiscoverX scanMAX
The series can be described thus: scanMAX kinase panel. The note with it: read-out: % Control; for remaining binding at 1 µM: 1000 nM. Format: binding.
Text: as §1, §2

The target of series [3] is T3, NEK5 (Homo sapiens, UniProt Q6P3R8).
T3 construct: purchased DiscoverX scanMAX
T3 sequence (Q6P3R8 1-708): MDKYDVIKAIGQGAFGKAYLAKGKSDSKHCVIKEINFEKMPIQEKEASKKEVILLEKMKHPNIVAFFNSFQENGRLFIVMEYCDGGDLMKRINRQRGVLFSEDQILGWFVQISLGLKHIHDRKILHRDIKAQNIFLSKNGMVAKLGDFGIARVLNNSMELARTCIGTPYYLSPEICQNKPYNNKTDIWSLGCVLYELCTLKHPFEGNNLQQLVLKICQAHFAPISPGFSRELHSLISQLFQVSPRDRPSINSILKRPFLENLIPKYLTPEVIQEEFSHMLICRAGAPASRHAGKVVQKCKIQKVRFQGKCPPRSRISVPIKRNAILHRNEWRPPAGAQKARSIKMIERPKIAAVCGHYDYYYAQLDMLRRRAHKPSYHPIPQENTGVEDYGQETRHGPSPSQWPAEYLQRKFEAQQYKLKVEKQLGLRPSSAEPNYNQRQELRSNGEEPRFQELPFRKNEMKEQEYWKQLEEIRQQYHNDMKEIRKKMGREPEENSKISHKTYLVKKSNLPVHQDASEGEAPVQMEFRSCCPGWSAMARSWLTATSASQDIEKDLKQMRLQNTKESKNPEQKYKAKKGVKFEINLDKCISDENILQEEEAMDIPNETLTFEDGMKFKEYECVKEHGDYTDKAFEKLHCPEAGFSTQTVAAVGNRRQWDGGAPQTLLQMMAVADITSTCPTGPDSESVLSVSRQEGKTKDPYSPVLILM
As to the kind of experiment: scanMAX kinase panel. Type of series: binding. The note with it: read-out: % Control; for remaining binding at 1 µM: 1000 nM.
Text: as §1, §2

For series [4], the target named is T4, EIF2AK1 (Homo sapiens, UniProt Q9BQI3).
T4 construct: purchased DiscoverX scanMAX
The series can be described thus: scanMAX kinase panel. Format: binding. As to conditions: read-out: % Control; for remaining binding at 1 µM: 1000 nM.
Text: as §1, §2

Series [5] concerns the target T5, PAK3 (Homo sapiens, UniProt O75914).
T5 construct: purchased DiscoverX scanMAX
The series can be described thus: scanMAX kinase panel. As to conditions: read-out: % Control; for remaining binding at 1 µM: 1000 nM. Type of series: binding.
Text: as §1, §2

In series [6] the test system is FLT3(ITD,D835V). The series can be described thus: scanMAX kinase panel. Type of series: binding.
Text: as §1, §2

The target in series [7] is T6, LOK (Homo sapiens, UniProt O94804).
T6 construct: purchased DiscoverX scanMAX
The series can be described thus: scanMAX kinase panel. Type of series: binding. The note with it: read-out: % Control; for remaining binding at 1 µM: 1000 nM.
Text: as §1, §2

Series [8] concerns the target T7, YANK1 (Homo sapiens, UniProt Q8WU08).
T7 construct: purchased DiscoverX (scanMAX panel)
The series can be described thus: scanMAX kinase panel. The note with it: read-out: % Control; for remaining binding at 1 µM: 1000 nM. Format: binding.
Text: as §1, §2

In series [9] the target is T8, MEK5 (Homo sapiens, UniProt Q13163).
T8 construct: purchased DiscoverX scanMAX
T8 sequence (Q13163 1-448): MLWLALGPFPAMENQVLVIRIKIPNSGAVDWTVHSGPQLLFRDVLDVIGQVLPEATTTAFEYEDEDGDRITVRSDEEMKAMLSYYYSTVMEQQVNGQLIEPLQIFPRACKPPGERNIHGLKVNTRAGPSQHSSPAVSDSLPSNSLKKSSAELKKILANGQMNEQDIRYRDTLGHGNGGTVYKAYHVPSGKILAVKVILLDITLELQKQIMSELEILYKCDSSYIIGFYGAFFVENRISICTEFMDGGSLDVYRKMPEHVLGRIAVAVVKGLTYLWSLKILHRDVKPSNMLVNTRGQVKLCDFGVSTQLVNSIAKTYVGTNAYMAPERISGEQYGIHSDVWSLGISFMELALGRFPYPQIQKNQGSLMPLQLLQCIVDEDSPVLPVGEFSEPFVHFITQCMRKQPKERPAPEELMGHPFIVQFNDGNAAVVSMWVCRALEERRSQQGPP
As to the kind of experiment: scanMAX kinase panel. Format: binding. The note with it: read-out: % Control; for remaining binding at 1 µM: 1000 nM.
Text: as §1, §2

Series [10] deals with T9, CDK8 (Homo sapiens, UniProt P49336).
T9 construct: purchased DiscoverX scanMAX
As to the kind of experiment: scanMAX kinase panel. Format: binding. As to conditions: read-out: % Control; for remaining binding at 1 µM: 1000 nM.
Text: as §1, §2

Series [11] concerns 786-O RCC xenografts. As to the kind of experiment: 786-O ccRCC tumor xenograft study. The note with it: for tolerability by body weight measurement / tumor growth inhibition: 30 mg/kg BID oral, 29 days. Format: in vivo. How it is done:
In vivo studies of the effect of pyrrolopyrimidines on 786-O xenograft inhibition follow a method published elsewhere. Female BALB/c nude mice were inoculated subcutaneously with 786-O tumor cells (5 × 10^6) in 0.1 mL of PBS. Animals were randomized when tumors reached 100–200 mm^3 into treatment groups. […] Tumor volumes were measured by caliper and the volume was expressed in mm^3 using the formula: V = (L × W × W)/2, where V, L, and W represent tumor volume, length, and width, respectively. All studies were conducted following an IACUC-approved protocol (AN-1903-05-1798). Experimental data management and reporting were in accordance with applicable Crown Bioscience’s Guidelines and Standard Operating Procedures.

T2 sequence (P42336 whole entry E542K): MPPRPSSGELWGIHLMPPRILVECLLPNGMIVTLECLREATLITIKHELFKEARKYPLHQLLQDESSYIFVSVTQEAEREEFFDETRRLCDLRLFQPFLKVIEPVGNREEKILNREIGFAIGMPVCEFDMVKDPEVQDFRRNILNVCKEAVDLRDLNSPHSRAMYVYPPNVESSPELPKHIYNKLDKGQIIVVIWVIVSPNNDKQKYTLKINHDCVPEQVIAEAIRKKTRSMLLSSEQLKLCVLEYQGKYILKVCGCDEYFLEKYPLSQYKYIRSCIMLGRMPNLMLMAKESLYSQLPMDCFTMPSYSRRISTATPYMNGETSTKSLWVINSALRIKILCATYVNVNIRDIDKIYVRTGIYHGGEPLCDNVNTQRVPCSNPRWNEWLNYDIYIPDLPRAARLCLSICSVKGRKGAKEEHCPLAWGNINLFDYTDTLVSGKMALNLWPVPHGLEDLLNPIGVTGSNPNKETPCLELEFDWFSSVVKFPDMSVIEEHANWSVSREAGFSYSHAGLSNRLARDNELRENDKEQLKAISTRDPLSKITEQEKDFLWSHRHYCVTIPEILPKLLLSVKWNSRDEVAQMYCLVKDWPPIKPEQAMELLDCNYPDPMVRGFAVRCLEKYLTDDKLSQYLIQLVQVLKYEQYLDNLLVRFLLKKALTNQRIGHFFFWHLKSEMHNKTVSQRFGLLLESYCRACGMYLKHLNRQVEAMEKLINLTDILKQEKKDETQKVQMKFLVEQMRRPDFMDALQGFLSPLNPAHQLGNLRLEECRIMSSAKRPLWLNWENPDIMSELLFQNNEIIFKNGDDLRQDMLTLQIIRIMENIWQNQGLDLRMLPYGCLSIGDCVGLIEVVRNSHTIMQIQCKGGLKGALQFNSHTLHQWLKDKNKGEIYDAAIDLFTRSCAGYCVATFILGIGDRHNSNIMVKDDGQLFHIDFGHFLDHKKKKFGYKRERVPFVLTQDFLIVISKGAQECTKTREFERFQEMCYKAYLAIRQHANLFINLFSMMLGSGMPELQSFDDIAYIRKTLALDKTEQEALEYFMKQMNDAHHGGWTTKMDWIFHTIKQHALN
T7 sequence (Q8WU08 whole entry): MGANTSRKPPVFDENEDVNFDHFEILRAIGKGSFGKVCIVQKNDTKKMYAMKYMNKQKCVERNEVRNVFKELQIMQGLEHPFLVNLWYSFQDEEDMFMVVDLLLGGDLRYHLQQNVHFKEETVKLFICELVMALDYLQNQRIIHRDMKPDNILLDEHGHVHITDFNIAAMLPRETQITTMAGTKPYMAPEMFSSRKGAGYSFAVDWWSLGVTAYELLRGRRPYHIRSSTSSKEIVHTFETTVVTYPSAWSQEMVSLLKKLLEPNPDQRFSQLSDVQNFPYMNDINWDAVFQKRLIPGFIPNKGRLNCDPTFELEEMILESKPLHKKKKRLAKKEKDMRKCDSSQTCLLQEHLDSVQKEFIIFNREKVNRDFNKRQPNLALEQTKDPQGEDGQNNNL
T4 sequence (Q9BQI3 whole entry): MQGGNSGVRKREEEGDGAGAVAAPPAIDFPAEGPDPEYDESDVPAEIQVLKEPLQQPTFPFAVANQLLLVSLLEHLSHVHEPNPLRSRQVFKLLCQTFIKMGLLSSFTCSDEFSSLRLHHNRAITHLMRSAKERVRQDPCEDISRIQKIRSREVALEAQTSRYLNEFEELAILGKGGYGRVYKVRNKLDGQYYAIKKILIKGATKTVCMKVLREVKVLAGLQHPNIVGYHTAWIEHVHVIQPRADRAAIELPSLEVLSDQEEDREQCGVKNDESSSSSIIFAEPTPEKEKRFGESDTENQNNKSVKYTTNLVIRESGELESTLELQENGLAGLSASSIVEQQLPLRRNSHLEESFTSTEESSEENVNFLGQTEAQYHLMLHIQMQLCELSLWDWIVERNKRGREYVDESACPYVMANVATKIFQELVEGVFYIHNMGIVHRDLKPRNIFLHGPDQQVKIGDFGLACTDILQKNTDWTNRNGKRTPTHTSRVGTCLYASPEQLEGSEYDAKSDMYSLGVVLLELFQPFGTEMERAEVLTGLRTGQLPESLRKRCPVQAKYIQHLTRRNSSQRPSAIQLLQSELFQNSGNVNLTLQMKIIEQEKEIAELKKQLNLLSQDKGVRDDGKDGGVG
T9 sequence (P49336 whole entry): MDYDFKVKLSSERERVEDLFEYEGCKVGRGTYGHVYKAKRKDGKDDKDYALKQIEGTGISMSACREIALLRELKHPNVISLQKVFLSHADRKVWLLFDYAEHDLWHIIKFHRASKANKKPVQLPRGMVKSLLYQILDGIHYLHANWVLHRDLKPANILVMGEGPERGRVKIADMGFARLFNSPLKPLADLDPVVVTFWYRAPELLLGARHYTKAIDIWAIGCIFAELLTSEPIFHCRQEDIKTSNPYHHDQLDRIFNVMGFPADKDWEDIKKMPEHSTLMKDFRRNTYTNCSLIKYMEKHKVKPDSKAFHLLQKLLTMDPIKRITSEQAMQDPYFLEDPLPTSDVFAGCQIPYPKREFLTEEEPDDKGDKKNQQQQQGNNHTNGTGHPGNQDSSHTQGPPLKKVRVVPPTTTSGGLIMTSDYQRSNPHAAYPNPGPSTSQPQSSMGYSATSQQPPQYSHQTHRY
T5 sequence (O75914 whole entry): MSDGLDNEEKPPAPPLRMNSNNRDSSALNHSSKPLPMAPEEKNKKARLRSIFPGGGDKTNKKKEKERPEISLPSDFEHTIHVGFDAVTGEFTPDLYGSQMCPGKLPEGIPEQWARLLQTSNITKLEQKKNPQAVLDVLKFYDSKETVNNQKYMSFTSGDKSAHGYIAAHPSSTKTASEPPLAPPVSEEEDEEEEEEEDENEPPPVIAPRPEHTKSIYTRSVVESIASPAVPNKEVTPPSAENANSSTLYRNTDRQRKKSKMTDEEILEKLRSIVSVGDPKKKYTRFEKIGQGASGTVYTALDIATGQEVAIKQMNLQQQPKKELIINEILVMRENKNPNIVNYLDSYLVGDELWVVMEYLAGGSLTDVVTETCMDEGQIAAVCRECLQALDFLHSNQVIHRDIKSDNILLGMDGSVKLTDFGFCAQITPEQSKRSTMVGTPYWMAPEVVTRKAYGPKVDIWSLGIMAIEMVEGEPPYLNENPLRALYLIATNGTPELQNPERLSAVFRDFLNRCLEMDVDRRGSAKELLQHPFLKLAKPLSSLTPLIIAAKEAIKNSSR
T6 sequence (O94804 whole entry): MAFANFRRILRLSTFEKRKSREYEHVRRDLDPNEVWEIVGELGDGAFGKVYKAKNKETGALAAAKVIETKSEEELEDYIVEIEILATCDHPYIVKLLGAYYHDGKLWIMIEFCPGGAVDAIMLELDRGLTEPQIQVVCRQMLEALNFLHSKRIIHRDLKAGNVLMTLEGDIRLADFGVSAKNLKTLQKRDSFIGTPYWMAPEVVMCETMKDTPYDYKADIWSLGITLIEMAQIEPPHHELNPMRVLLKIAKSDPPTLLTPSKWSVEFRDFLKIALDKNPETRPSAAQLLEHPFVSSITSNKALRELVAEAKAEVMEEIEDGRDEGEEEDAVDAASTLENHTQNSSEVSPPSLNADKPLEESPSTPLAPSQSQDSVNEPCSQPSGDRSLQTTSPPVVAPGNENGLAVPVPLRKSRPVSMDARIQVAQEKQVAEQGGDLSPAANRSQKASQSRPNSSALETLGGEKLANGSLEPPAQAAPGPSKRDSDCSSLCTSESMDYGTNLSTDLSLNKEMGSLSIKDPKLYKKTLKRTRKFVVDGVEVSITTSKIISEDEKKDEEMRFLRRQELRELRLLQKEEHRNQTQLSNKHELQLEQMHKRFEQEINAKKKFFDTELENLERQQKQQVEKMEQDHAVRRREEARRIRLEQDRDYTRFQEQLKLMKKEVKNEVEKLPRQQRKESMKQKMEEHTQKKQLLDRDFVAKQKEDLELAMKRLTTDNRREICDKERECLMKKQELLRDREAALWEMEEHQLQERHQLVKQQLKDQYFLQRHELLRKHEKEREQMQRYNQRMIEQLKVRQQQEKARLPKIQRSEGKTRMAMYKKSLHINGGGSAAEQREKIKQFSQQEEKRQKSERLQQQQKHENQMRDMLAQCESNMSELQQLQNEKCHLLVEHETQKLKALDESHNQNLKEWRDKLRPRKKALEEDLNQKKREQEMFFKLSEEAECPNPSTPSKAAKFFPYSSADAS

`Cc1cc(NC(=O)[C@H](O)c2cccc(F)c2)ccc1-c1cn(C)c2ncnc(N)c12` [Compound 11, (R)-N-(4-(4-amino-7-methyl-7H-pyrrolo[2,3-d]pyrimidin-5-yl)-3-methylphenyl)-2-(3-fluorophenyl)-2-hydroxy acetamide]: the remaining binding at 1 µM in series [1] came to 16%; in series [2] it was 89%; in series [3], 34%; in [4], 49%; in [5] it was 36%; in series [7], 4%. Moreover, the remaining binding at 1 µM in series [8] was 28%; in series [9], 1.1%; in [10], 2.5%. In addition, in [6] (1000 nM), the “% Control” value turned out to be 89%.

For `Cc1nc(N)c2c(-c3ccc(NC(=O)[C@H](O)c4cccc(F)c4)cc3C)cn(C)c2n1` [Compound 24], the remaining binding at 1 µM in series [1] amounted to 100%; in series [2] it was 0.7%; in [3], 100%; in series [4], 73%; in series [5], 100%; in series [7], 88%. Moreover, the figures for the remaining binding at 1 µM in series [8], in series [9] and in [10] were 94%, 100% and 98%, respectively. In series [6] (1000 nM), the “% Control” value stood at 100%. In addition, the “tolerability by body weight measurement” value in series [11] is “well tolerated”. Also, the tumor growth inhibition entry in [11] was “significant tumor growth inhibition”.

For the compound `Cc1nc(N)c2c(-c3ccc(NC(=O)[C@H](O)c4cccc(C(F)(F)F)c4)cc3C)cn(C)c2n1` [Compound 26], the remaining binding at 0.1 µM turned out to be 69% in series [1] (100 nM); 100% in series [2] (100 nM); 100% in [3] (100 nM); 89% in series [4] (100 nM); 97% in series [5] (100 nM); 94% in series [7] (100 nM). In addition, the values for the remaining binding at 0.1 µM in series [8] (100 nM), in series [9] (100 nM) and in series [10] (100 nM) were 96%, 100% and 100%, respectively. The remaining binding at 1 µM in series [1] came to 3.8%; in series [2], 91%; in series [3] it was 96%; in series [4], 78%; in [5], 31%; in series [7] it was 12%. Moreover, the remaining binding at 1 µM in [8] amounted to 67%; in series [9], 68%; in series [10], 57%. Moreover, the entries for the “% Control” value in series [6] (100 nM) and in [6] (1000 nM) were 100% and 75%, respectively. For the same compound, the “tolerability by body weight measurement” value in [11] is reported as “well tolerated”. Besides, in series [11], the tumor growth inhibition result was “significant tumor growth inhibition”. Also, the “effect on body weight” value in series [11] (10 or 30 mg/kg, 28-day study period) was “No significant effects on body weght”. In [11] (10 or 30 mg/kg, 28 days), the tumor volume result is “significantly decreased tumor volume”.

For `Cc1nc(N)c2c(-c3ccc(NC(=O)[C@H](O)c4cccc(F)c4)c(F)c3F)cn(C)c2n1` [Compound 70, (R)-N-(4-(4-amino-2,7-dimethyl-7H-pyrrolo[2,3-d]pyrimidin-5-yl)-2,3-difluorophenyl)-2-(3-fluorophenyl)-2-hydroxyacetamide], in series [11], the “tolerability by body weight measurement” value is “well tolerated” and the tumor growth inhibition entry is “significant tumor growth inhibition”.
